Results on one molecule are retold here after paper PMC8745332, “Synthesis, Molecular Docking and Biological Characterization of Pyrazine Linked 2-Aminobenzamides as New Class I Selective Histone Deacetylase (HDAC) Inhibitors with Anti-Leukemic Activity” (International Journal of Molecular Sciences, 2021).

For test [1], the system named is MOLM-13 cells. Put plainly: Apoptosis in MOLM-13 cells, annexin-V/PI flow cytometry. Type of test: cell-based, human. The following applies: for IC50: Homo sapiens. How it is done: We measured the induction of early (increased exposure of phosphatidylserine on the cell surface and therefore positive staining for annexin-V-FITC) and late apoptosis (positivity for annexin-V and accumulation of propidium iodide, PI) by flow cytometry.
(§1) All leukemic cells were kept in RPMI-1640 medium supplemented with 10% FBS and 1%penicillin/streptomycin (Sigma-Aldrich, Taufkirchen, Germany) under standard culture conditions at 37 °C and a 5% CO2 humidified atmosphere. Cells were authenticated as mentioned by us.

Test [2] concerns MV4-11 and MOLM-13 cells. Put plainly: Immunoblot of acetylated histone H3 and cleaved caspase-3. The settings on record: MV4-11 and MOLM-13 cells, 0.25, 0.5, 1 µM, 24 h. Type of test: cell-based, human. How it is done: (C,D) The same experiments were conducted with MOLM-13 cells. (E) IC50 values were determined for 19f. (F) Immunoblot was done with the stated antibodies and lysates of MV4-11 and MOLM-13 cells that were incubated with the HDACi for 24 h. […] Graphs show representatives of three independent experiments.

For test [3], the target named is T1, human HDAC8 (Homo sapiens, UniProt Q9BY41).
T1 construct: made in house
T1 sequence (Q9BY41 1-377): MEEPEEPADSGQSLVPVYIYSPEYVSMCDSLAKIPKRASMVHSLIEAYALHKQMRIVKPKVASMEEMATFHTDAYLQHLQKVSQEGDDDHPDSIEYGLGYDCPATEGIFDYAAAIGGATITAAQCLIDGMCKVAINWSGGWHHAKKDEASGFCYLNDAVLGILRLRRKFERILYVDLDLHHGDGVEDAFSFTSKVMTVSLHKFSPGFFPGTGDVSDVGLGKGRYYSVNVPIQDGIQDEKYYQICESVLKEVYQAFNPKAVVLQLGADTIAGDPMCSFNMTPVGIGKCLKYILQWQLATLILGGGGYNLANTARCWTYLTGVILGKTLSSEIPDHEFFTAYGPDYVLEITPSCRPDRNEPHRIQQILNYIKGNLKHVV
Put plainly: HDAC8 homogenous fluorescence assay with ZMAL substrate. The class given is biochemical. The settings on record: read-out: HDAC8 (% Inhib.). On the procedure: Recombinant human HDAC1, HDAC2, and HDAC3/NCOR1 were purchased from ENZO Life Sciences AG (Lausen, CH). Recombinant human HDAC 4, HDAC5, HDAC7, HDAC9 and HDAC11 were produced by Barinka lab in Prague, as described before. Recombinant human HDAC8 was produced by Romier et al. (IGBMC, Univ. Strasbourg), as described in [55].
Fluorescence intensity was measured at an excitation wavelength of 390 nm and an emission wavelength of 460 nm in a microtiter plate reader (BMG Polarstar).

For test [4], the system named is HEL cells. Put plainly: Cytotoxicity/apoptosis in HEL cells expressing JAK2V617F, annexin V-FITC/PI flow cytometry. The class given is cell-based, human. How it is done:
(B) Cells were stained with annexin V-FITC/PI and analyzed via flow cytometry. […] IC50 values were determined for 19f. Results represent three independent experiments.
This erythroleukemia cell model carries a mutation in Janus kinase-2 (JAK2V617F) and HDACi are considered as therapeutic options to control the transformation of this disease into AML [53].
as §1

SMILES strings stand for the structures. Where two headings read alike, the source gives them in different places.

As for `Nc1ccccc1NC(=O)c1cnc(N2CCN(Cc3c[nH]c4ccccc34)CC2)cn1` [19f, 5-(4-((1H-indol-3-yl)methyl)piperazin-1-yl)-N-(2-aminophenyl)pyrazine-2-carboxamide], the IC50 in test [1] (MOLM-13, 48 h, read-out: IC50 (apoptosis, annexin-V/PI)) was 318 nM; in test [1] (MOLM-13 cells, 24 h, annexin-V/PI, read-out: IC50 for apoptosis induction), 397 nM; in test [1] (MOLM-13 cells, after 48 h, read-out: IC50 values for growth inhibition), approximately 300 nM; in test [4] (Homo sapiens, 0.25 µM to 5 µM, 24 h, read-out: IC50 for toxic effects on HEL cells), 925 nM. Further, in test [1] (MOLM-13 cells, versus MS-275), the “fold higher potency than MS-275 (apoptosis induction)” value was 4 fold. Moreover, in test [2], the “accumulation of acetylated histone H3 (immunoblot)” value is “triggered the expected accumulation of acetylated histone H3 dose-dependently and more potently than MS-275 did”. Also, in test [3], the inhibition at 1 µM came out at 0%. Besides, in test [4] (0.5 µM, 48 h), the “apoptosis in HEL cell cultures” value is reported as 26%.
